The results in this text go back to PMC3068151 (PLoS ONE, 2011).

For test [1], the system named is PC3 cells. Description: PC3 cell binding / adhesion assay (MTT readout). The test is classed as cell-based, human. The method, then: 96 well ELISA high binding plates were incubated overnight at 4°C with ephrinA1-Fc 1 µg/cm^2, 100 µl per well. The plates were washed three times with PBS and blocked for 1 hour with BSA 1%. Cells were treated with proper concentration of substance or DMSO 0.5% for 30 minutes in vials on a shaker. After that, plates were washed with PBS and incubated with 100 µl 5×10^5 cells/ml for 1 hour at 37°C. Finally, plates were washed with PBS and adhering cells were quantified using MTT colorimetric assay.
96-wells plates for cell culture were untretaed (A) or coated with 1 µg/cm^2 ephrinA1-Fc (B) overnight. PC3 cells were treated with the indicated compounds for 30 minutes in a tube and let to adhere for 60 minutes on the wells. Cell adhesion is reported normalizing adhesion of Fc to 100%. […] Data are the means of at least three independent experiment ± st. err. One-way ANOVA followed by Dunnet's post test was performed comparing Fc to all other column. No significant differences were detected for data in graph A. *, p<0.05, **,p<0.01.

Test [2] concerns the target T1, EphB4 (Homo sapiens, UniProt P54760).
T1 construct: EphB4 phosphorylation on T47D breast cancer cells; endogenous in cells; host or cells: T47D
T1 sequence (P54760 16-987): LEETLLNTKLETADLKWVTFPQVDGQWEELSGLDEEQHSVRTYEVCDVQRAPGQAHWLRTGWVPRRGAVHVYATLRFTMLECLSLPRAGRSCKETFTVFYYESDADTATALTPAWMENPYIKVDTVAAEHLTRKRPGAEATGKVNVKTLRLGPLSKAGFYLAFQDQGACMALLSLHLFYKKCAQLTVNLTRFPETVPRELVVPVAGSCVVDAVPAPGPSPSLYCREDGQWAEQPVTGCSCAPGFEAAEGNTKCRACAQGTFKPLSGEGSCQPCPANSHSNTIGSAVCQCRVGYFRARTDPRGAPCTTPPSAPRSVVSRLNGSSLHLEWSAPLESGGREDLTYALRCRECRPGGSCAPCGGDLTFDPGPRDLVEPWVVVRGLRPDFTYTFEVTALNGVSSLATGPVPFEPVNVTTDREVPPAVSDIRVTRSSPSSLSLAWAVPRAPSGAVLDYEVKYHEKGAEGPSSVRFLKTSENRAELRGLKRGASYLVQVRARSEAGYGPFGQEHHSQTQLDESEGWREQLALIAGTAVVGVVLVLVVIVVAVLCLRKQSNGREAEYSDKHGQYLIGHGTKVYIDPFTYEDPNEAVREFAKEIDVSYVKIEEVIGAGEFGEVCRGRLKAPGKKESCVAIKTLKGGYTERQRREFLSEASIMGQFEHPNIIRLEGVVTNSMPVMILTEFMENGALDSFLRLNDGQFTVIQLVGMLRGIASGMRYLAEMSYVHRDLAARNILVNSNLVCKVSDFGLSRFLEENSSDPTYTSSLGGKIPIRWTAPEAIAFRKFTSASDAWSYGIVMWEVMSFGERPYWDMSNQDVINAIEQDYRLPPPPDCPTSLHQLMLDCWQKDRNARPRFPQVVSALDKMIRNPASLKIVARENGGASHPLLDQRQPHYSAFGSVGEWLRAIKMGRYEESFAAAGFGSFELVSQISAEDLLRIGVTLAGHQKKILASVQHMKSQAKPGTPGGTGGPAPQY
The test is described as follows: Phosphorylated-EphB4 sandwich ELISA in T47D cell lysates. Type of test: cell-based. Particulars: T47D cells, 3 µg/ml ephrinB2-Fc preclustered with 0.3 µg/ml IgG Fc fragment; read-out: IC50 EphB4 phosphorylation. Here is the method: Cells were seeded in 12-well plates at concentration of 10^5cells/ml in complete medium until they reached ∼40% confluence and serum starved overnight. The day after cells were treated with compounds under study, vehicle or standard drug, stimulated with the proper agonist, rinsed with sterile PBS and solubilized in lysis buffer. The lysates were resuspended and rocked at 4°C for 30 minutes and then centrifuged at 14000 xg for 5 minutes. The protein content of supernatant was measured with BCA protein assay kit (Thermo scientific), standardized to 200 µg/ml and transferred into a clean test tube ready to be used.
EphA2-, EphB4- and EGFR-phosphorylation were measured in cell lysates using DuoSet®IC Sandwich ELISA (RnD Systems, #DYC4056, #DYC4057 and #DYC1095, respectively) following manufacturer's protocol. […] The day after wells were washed and blocked for 1 hour at room temperature. After that, wells were washed and 100 µl/well of lysates were added at room temperature for 2 hours; wells were washed and incubated with Detection Antibody at room temperature for 2 hours.
EphB4 phosphorylation was stimulated with 3 µg/ml ephrinB2-Fc, preclustered with 0.3 µg/ml IgG Fc fragment on T47D cells (G, H, I). […] Phospho-EphA2/B4 levels are relative to ephrinA1/B2-Fc+DMSO. Data are the means of at least three independent experiment ± st. err. […]

Test [3] has as its target T2, IRKβ (Homo sapiens, UniProt P06213).
T2 construct: in HepG2 or A431 cells, respectively; endogenous in cells; host or cells: HepG2 according to b24; A431 according to the order in the legend b55
Description: IRKβ activity, alpha Technology. Type of test: cell-based. The following applies: 100 µM, 100 nM insulin. The method, then: Cells were stimulated with 5 nM IGF1 or 100 nM insulin for 10 minutes, lysed and a fluorescence acceptor (alphaLISA protein A beads coated with anti-phospho-IRKβ or -IGFR1β) added for 2 hours. A fluorescence donor (streptavidin coupled-beads) coated with an antibody towards IRKβ or IGFR1β was incubated for 2 hours and the signal was measured at λex = 680 nm and λem = 500 nm and 600 nm using a microplate reader (EnVision, Perkin Elmer, Waltham, MA, USA).
These assays were performed at CEREP (Celle L'Evescault, France).
A, B) EGFR phosphorylation was induced by 30 ng/ml and 10 ng/ml EGF on PC3 (A) and HT29 (B) cells, respectively. […] Data are the means of two experiments ± st. err.

The target in test [4] is T3, EphA2-ephrinA1 binding (Mus musculus, UniProt Q03145).
T3 construct: we immobilized EphA2-Fc- ectodomain on proper ELISA plates; purchased R&D systems 639-A2 (EphA2-Fc); BT602 (biotinylated ephrinA1-Fc)
T3 sequence (Q03145 26-538 limits assumed): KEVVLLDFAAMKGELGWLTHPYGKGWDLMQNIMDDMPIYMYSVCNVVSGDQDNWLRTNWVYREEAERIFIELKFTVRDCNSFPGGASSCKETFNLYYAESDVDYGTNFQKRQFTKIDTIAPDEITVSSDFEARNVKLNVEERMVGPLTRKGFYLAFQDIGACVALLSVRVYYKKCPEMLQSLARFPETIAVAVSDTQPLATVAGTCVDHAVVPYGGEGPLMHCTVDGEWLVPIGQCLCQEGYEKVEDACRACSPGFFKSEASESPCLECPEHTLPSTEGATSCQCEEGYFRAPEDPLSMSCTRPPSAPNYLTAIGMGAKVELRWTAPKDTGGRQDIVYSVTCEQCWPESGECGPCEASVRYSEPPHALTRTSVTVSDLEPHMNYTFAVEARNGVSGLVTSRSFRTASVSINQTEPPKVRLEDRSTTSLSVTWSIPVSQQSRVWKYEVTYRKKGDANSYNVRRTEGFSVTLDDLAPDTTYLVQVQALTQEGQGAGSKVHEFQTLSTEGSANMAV
The test is described as follows: ELISA EphA2-ephrinA1 binding (displacement and saturation). Particulars: 200 µM for 1 hour, some wells washed before adding 50 ng/ml ephrinA1-Fc.

T2 sequence (P06213 763-1382 limits assumed): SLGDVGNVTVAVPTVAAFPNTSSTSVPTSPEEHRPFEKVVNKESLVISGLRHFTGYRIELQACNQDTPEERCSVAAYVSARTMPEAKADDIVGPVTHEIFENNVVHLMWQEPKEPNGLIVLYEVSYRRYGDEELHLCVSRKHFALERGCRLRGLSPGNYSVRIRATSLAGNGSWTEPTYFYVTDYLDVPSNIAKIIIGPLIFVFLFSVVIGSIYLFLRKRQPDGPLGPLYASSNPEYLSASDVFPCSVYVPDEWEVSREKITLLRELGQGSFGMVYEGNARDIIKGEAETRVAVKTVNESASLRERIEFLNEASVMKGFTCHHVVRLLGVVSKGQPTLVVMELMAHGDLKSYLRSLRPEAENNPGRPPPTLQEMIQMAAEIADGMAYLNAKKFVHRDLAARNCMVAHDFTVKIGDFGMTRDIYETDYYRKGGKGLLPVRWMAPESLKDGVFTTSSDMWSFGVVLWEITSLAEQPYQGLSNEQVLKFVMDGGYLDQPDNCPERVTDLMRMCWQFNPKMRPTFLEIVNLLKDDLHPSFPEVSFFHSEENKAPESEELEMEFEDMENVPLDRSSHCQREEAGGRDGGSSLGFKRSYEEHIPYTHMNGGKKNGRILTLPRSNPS
T2 sequence (P06213 28-758 partner limits assumed): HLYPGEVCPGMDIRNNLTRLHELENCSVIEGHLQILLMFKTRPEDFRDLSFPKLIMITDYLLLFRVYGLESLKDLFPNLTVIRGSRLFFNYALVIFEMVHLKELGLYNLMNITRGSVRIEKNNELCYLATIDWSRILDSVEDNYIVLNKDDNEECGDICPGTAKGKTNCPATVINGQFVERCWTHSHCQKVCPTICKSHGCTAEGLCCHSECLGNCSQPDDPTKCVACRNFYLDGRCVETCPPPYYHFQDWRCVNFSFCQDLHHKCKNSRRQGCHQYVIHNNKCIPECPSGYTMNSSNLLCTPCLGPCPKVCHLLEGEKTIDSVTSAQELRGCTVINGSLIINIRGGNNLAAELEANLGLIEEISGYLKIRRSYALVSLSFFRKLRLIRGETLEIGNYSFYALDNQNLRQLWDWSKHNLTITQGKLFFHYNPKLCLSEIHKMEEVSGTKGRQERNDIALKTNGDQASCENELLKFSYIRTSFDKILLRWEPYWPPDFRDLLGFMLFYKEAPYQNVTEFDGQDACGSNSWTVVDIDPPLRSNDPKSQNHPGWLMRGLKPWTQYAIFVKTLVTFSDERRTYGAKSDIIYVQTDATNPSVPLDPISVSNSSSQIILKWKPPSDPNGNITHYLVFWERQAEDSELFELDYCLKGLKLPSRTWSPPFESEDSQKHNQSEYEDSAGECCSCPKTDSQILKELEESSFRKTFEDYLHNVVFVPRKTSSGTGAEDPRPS

`C[C@H](CCC(=O)O)[C@H]1CC[C@H]2[C@@H]3CC[C@@H]4C[C@H](O)CC[C@]4(C)[C@H]3CC[C@]12C` [LCA, lithocholic acid]: the “PC3 adhesion to ephrinA1-Fc” value in test [1] (ephrinA1-Fc coated plates, increasing concentrations) is given as “dose-dependently inhibited”. Besides, the “aspecific PC3 cell adhesion” value in test [1] (uncoated standard cell culture plates) is recorded as “neither ephrinA1-Fc nor LCA inhibited”. Also, the IC50 in test [2] is 141 µM. Also, the “effect on IRKβ activity as agonist or antagonist” value in test [3] is “failed to affect activity”. In addition, in test [4], the “reversibility of binding (displacement with or without washing)” value was “The displacement was detected only where the washing was not performed”.
